From patent publication US8877731B2, “Azido nucleosides and nucleotide analogs” (Alios Biopharma, Inc., priority 2010, dated 2014)
Read-outs that look alike come from different tables or passages of the source.

Legend:
Type in all cases: cell-based
RSV A2 = assay: RSV RT-PCR based assay
Method: RT-PCR based assays were performed in HEp-2 cells (ATCC: CCL-23) at a concentration of 20000 cell/well were plated in 96 well plates and incubated overnight. Each of the test compounds were ⅓ serially diluted and dosed to HEp-2 cells in duplicates. The highest final concentration for each compound was 100 uM. After 24 hour compound pre-incubation, RSV A2 (ATCC: VR-1540) at MOI of 0.1 was added. Two wells per compound were set aside as uninfected, untreated cell controls (CC), and four wells per test compound received virus only as a control for virus replication (VC). The assay was stopped 4 days after virus infection and conditioned media was removed for viral RNA isolation. The quantities of the RSV virus were measured by real-time PCR using a set of RSV specific primers and probe. The data was analyzed with Prism software with EC50 defined as drug concentration that reduced the viral load 50% from the viral control (VC).
(§1) Compounds of Formula (I) and Formula (II) are active in the assay as noted in Tables 2 and 3, where ‘A’ indicates an EC50<1 μM, ‘B’ indicates an EC50 of >1 μM and <10 μM, ‘C’ indicates an EC50>10 μM and <100 μM, and ‘D’ indicates an EC50>100 μM.

RSV Long strain = assay: RSV CPE reduction assay
Method: CPE reduction assays were performed as described by Sidwell and Huffman et al., Appl Microbiol. (1971) 22(5):797-801 with slight modifications. HEp-2 cells (ATCC) at a concentration of 6000 cell/well were infected with RSV Long strain (ATCC) at a multiplicity of infection (m.o.i.) of 0.01, and each of the test compounds were provided to duplicate wells at final concentrations starting from 100 μM using ⅓ stepwise dilutions. For each compound, two wells were set aside as uninfected, untreated cell controls (CC), and two wells per test compound received virus only as a control for virus replication (VC). […] At the end of the incubation, 20 μl of cell counting kit-8 reagent (CCK-8, Dojindo Molecular Technologies, Inc.) were added to each well. After 4 hour incubation, the absorbance was measured in each well according to manufacturer's instruction, and the 50% effective concentration (EC50) was calculated by using regression analysis, based on the mean O.D. at each concentration of compound.
as §1

Influenza A/WSN/33 virus = assay: Influenza antiviral assay (real-time PCR); details: A549 cells, 24 hour pre-incubation, 72 hours, read-out: Percent Inhibition
[1] = human respiratory syncytial virus, RT-PCR assay, HEp-2 cells, 24 hour compound pre-incubation, RSV A2 at MOI 0.1, 4 days after infection, viral load, read-out: EC50
[2] = human respiratory syncytial virus, 144 h, CPE assay, HEp-2 cells infected with RSV Long strain, m.o.i. 0.01, 6 days, CCK-8 readout, read-out: EC50
[3] = human respiratory syncytial virus, HEp-2
[4] = human respiratory syncytial virus, HEp-2, 144 h
[5] = RT-PCR assay, HEp-2 cells, 24 hour compound pre-incubation, RSV A2 at MOI 0.1, 4 days after infection, viral load, read-out: EC50
[6] = CPE assay, HEp-2 cells infected with RSV Long strain, m.o.i. 0.01, 6 days, CCK-8 readout, read-out: EC50

`[N-]=[N+]=N[C@]1(CO)O[C@@H](n2cnc3c(=O)[nH]c(N)nc32)[C@H](O)[C@@H]1O` [Compound 10, 4′-azidoguanosine] gave an EC50 (RSV A2; [1]) of under 1 µM, an EC50 (RSV Long strain; [2]) of under 1 µM and an inhibition at 30 µM (Influenza A/WSN/33 virus) of 83.3%.

For `[N-]=[N+]=N[C@]1(CO)O[C@@H](n2cnc3c(=O)[nH]c(N)nc32)C(F)(F)[C@@H]1O` [Compound 30, 4′-azido-2′-deoxy-2′,2′-difluoroguanosine], the EC50 (RSV A2; [1]) was over 100 µM and the inhibition at 30 µM (Influenza A/WSN/33 virus) was 99.9%.

With `[N-]=[N+]=N[C@]1(CO)O[C@@H](n2cnc3c(N)ncnc32)[C@H](F)[C@@H]1O` [Compound 28, 4′-azido-2′-deoxy-2′-fluoroadenosine] the EC50 (RSV A2; [1]) was over 100 µM, the EC50 (RSV Long strain; [2]) was over 100 µM and the inhibition at 30 µM (Influenza A/WSN/33 virus) was 94.6%.

In the case of `[N-]=[N+]=N[C@]1(CO)O[C@@H](n2ccc(N)nc2=O)[C@H](F)[C@@H]1O` [Compound 2, 4′-azido-2′-deoxy-2′-fluorocytidine], the EC50 (RSV A2; [1]) is reported as under 1 µM, the EC50 (RSV Long strain; [2]) is reported as under 1 µM and the inhibition at 30 µM (Influenza A/WSN/33 virus) is reported as 99.8%.

In the case of `CC(C)OC(=O)[C@H](C)NP(=O)(OC[C@@]1(N=[N+]=[N-])O[C@@H](n2ccc(=O)[nH]c2=O)[C@H](F)[C@@H]1O)Oc1ccccc1` (stereo partly drawn) [Compound 24, 4′-azido-2′-deoxy-2′-fluorouridine 5′-(O-phenyl-N—(S)-1-(isopropoxycarbonyl)ethyl)phosphoramidate], the EC50 (RSV A2; [1]) is reported as over 100 µM and the EC50 (RSV Long strain; [2]) is reported as over 100 µM.

In the case of `CC(C)OP1(=S)OC[C@@]2(N=[N+]=[N-])O[C@@H](n3ccc(N)nc3=O)[C@H](F)[C@@H]2O1` (some centres unmarked) [Compound 46, 4′-azido-2′-deoxy-2′-fluorocytidine 3′,5′-cyclic thiophosphoric acid isopropyl ester], the EC50 (RSV A2; [3]) is reported as over 100 µM and the EC50 (RSV Long strain; [4]) is reported as over 100 µM.

For `C[C@]1(F)[C@H](n2ccc(N)nc2=O)O[C@@](CO)(N=[N+]=[N-])[C@H]1O` [Compound 38, 4′-azido-2′-deoxy-2′-α-fluoro-2′-β-methylcytidine], the EC50 (RSV A2; [1]) was over 100 µM and the EC50 (RSV Long strain; [2]) was over 100 µM.

For `COc1nc(N)nc2c1ncn2[C@@H]1O[C@@](CO)(N=[N+]=[N-])[C@@H](O)[C@H]1F` [Compound 48, 2-amino-9-(4-aido-2-deoxy-2-fluoro-1-ribofuranosyl)-6-methoxypurine], the EC50 (RSV A2; [1]) was under 1 µM and the EC50 (RSV Long strain; [2]) was 1 to 10 µM.

`[N-]=[N+]=N[C@]1(CO)O[C@@H](n2cnc3nc(N)[nH]c(=O)c32)[C@H](O)[C@@H]1O` [Compound 25, 2-amino-7-(4-azido-β-D-ribofuranos-1-yl)-1H-purin-6(7H)-one] showed an EC50 (RSV A2; [1]) of over 100 µM and an EC50 (RSV Long strain; [2]) of over 100 µM.

`[N-]=[N+]=N[C@]1(CO)O[C@@H](n2cnc3c(=O)[nH]c(N)nc32)[C@H](F)[C@@H]1O` [Compound 27, 4′-azido-2′-deoxy-2′-fluoroguanosine] was tested, and the EC50 (RSV A2; [1]) was under 1 µM, the EC50 (RSV Long strain; [2]) was under 1 µM and the inhibition at 30 µM (Influenza A/WSN/33 virus) was 91%.

`C[C@H](NP(=O)(OCC1(N=[N+]=[N-])OC(n2cnc3c(=O)[nH]c(N)nc32)C(F)C1O)Oc1ccccc1)C(=O)OC1CCCCC1` (stereo partly drawn) [Compound 31, 4′-azido-2′-deoxy-2′-fluoroguanosine 5′-(O-phenyl-N—((S)-cyclohexoxycarbonyleth-1-yl))phosphoramidate] gave an EC50 (RSV A2; [5]) of under 1 µM and an EC50 (RSV Long strain; [6]) of under 1 µM.

Compound `COc1nc(N)nc2c1ncn2C1O[C@@](CO)(N=[N+]=[N-])[C@@H](O)[C@H]1F` (some centres unmarked) [Compound 49, 2-amino-9-(4-aido-2-deoxy-2-fluoro-1-ribofuranosyl)-6-methoxypurine] has an EC50 (RSV A2; [5]) of over 100 µM and an EC50 (RSV Long strain; [6]) of over 100 µM.

Compound `[N-]=[N+]=N[C@]1(CO)O[C@@H](n2cnc(C(N)=O)n2)[C@H](O)[C@@H]1O` [Compound 43, 4′-azidoribavirin] has an EC50 (RSV A2; [1]) of 10 to 100 µM and an EC50 (RSV Long strain; [2]) of 10 to 100 µM.

`[N-]=[N+]=N[C@]1(CO)O[C@@H](n2ccc(=O)[nH]c2=O)[C@H](F)[C@@H]1O` [Compound 17, 4′-azido-2′-deoxy-2′-fluorouridine] was tested, and the EC50 (RSV A2; [1]) was over 100 µM and the EC50 (RSV Long strain; [2]) was over 100 µM.

`CC(C)OC(=O)[C@H](C)NP(=O)(N[C@@H](C)C(=O)OC(C)C)OC[C@@]1(N=[N+]=[N-])O[C@@H](n2ccc(N)nc2=O)C(F)(F)[C@@H]1O` [Compound 33, 4′-azido-2′-deoxy-2′-difluorocytidine 5′-(N,N′-bis((S)-1-(isopropoxycarbonyl)ethyl))phosphordiamidate] was tested, and the EC50 (RSV A2; [1]) was under 1 µM and the EC50 (RSV Long strain; [2]) was under 1 µM.

Work on `CC(C)OC(=O)[C@H](C)NP(=S)(OC[C@@]1(N=[N+]=[N-])O[C@@H](n2ccc(=O)[nH]c2=O)[C@H](O)[C@@H]1O)Oc1ccccc1` (stereo partly drawn) [Compound 15, 4′-azidouridine 5′-(O-phenyl-N—(S)-1-(isopropoxycarbonyl)eth-1-yl)thiophosphoramidate] yielded an EC50 (RSV A2; [3]) of under 1 µM and an EC50 (RSV Long strain; [4]) of under 1 µM.

`[N-]=[N+]=N[C@]1(CO)O[C@@H](n2ccc(=O)[nH]c2=O)C(F)(F)[C@@H]1O` [Compound 5, 4′-azido-2′-deoxy-2′,2′-difluorouridine] was tested, and the EC50 (RSV A2; [1]) was over 100 µM and the EC50 (RSV Long strain; [2]) was over 100 µM.

Work on `[N-]=[N+]=N[C@]1(CO)O[C@@H](n2ccc(N)nc2=O)C(F)(F)[C@@H]1O` [Compound 1, 4′-azido-2′-deoxy-2′,2′-difluorocytidine] yielded an EC50 (RSV A2; [1]) of under 1 µM and an EC50 (RSV Long strain; [2]) of under 1 µM.

Compound `C[C@@]1(n2ccc(N)nc2=O)O[C@@](CO)(N=[N+]=[N-])[C@@H](O)[C@H]1O` [Compound 50, 4′-azido-1′-methylcytidine] has an EC50 (RSV A2; [1]) of over 100 µM, an EC50 (RSV Long strain; [2]) of over 100 µM and an inhibition at 30 µM (Influenza A/WSN/33 virus) of 90.9%.

In the case of `CC(C)OC(=O)[C@H](C)NP(=O)(OC[C@@]1(N=[N+]=[N-])O[C@@H](n2cnc3c(N)ncnc32)[C@H](F)[C@@H]1O)Oc1ccccc1` (stereo partly drawn) [Compound 37, 4′-azido-2′-deoxy-2′-fluoroadenosine 5′-(O-phenyl-N—(S)-1-(isopropoxycarbonyl)ethyl)phosphoramidate], the EC50 (RSV A2; [1]) is reported as 1 to 10 µM and the EC50 (RSV Long strain; [2]) is reported as 1 to 10 µM.

Work on `CC(C)OC(=O)[C@H](C)NP(=O)(N[C@@H](C)C(=O)OC(C)C)OC[C@@]1(N=[N+]=[N-])O[C@@H](n2ccc(=O)[nH]c2=O)[C@H](F)[C@@H]1O` [Compound 40] yielded an EC50 (RSV A2; [1]) of over 100 µM and an EC50 (RSV Long strain; [2]) of over 100 µM.
